Patent US20200247897A1, “THERAPEUTIC ANTIBODIES BASED ON MUTATED IGG HEXAMERS” (GENMAB B.V., priority 2017, published 2020)

Tested on: panel of 235 cell lines representing 14 tumor lineages
Assay: ATPlite growth inhibition screening of a human cancer cell line panel (Horizon Discovery)
Assay type: cell-based
Protocol: A 72 hour ATPlite assay (except for DLD-1 and HCT116 cell lines, for which a 120 hour assay was performed) with growth inhibition analysis was performed in two parts at Horizon Discovery Ltd, UK. Samples were tested as four replicates in 384-well assay plates. Serial dilution series of antibody, starting from 0.072 μM final concentration was used for all tested cell lines. For TRAIL (Invitrogen; Cat # PHC1634) serial dilution series starting from 0.01 μM final concentration for the cell lines tested in the first part and 0.17 μM final concentration for the cell lines tested in the second part of the screening was used.

[1] = MCAS, ovary cancer, screening #1
[2] = MCF7, breast cancer, screening #2
[3] = MDA-MB-453, breast cancer (TNBC), screening #2
[4] = MDA-MB-468, breast cancer (TNBC), screening #2
[5] = OVCAR-5, ovary cancer, screening #1
[6] = OVK18, ovary cancer, screening #1
[7] = PK-1, pancreatic cancer, screening #1
[8] = PSN1, pancreatic cancer, screening #1
[9] = Panc 02.13, pancreatic cancer, screening #1
[10] = RERF-LC-KJ, NSCLC, screening #1
[11] = RT4, bladder cancer, screening #2
[12] = RT-112, bladder cancer, screening #2
[13] = SCaBER, bladder cancer, screening #1
[14] = SF295, neural tissue cancer, screening #2
[15] = SK-BR-3, breast cancer, screening #2
[16] = SNU119, ovary cancer, screening #1
[17] = SNU-308, liver cancer, screening #1
[18] = SW780, bladder cancer, screening #1
[19] = T47D, breast cancer, screening #2
[20] = T-24, bladder cancer, screening #2
[21] = TCCSUP, bladder cancer, screening #2
[22] = UM-UC-3, bladder cancer, screening #1

**Q.** “TRAIL: natural DR5 ligand, recombinant human TRAIL/APO-2L” was tested. Which “Max Inhibition” value (KURAMOCHI, ovary cancer, screening #1) did it give?
**A.** 13.4%

**Q.** And the IC50 (LC1F, NSCLC, screening #1)?
**A.** 0.451 nM

**Q.** What about the “Max Inhibition” value (LC1F, NSCLC, screening #1) of the same substance?
**A.** 74.3%

**Q.** What about the IC50 (LC-1sq, NSCLC, screening #1) of the same substance?
**A.** 0.781 nM

**Q.** And the “Max Inhibition” value (LC-1sq, NSCLC, screening #1)?
**A.** 70.1%

**Q.** And the “Max Inhibition” value (LCLC-97TM1, NSCLC, screening #1)?
**A.** 4.6%

**Q.** What about the IC50 (LCLC-103H, NSCLC, screening #1) of the same substance?
**A.** 8.02 nM

**Q.** What about the “Max Inhibition” value (LCLC-103H, NSCLC, screening #1) of the same substance?
**A.** 54.2%

**Q.** And the “Max Inhibition” value (LK-2, NSCLC, screening #1)?
**A.** 5.6%

**Q.** What about the IC50 (LOU-NH91, NSCLC, screening #1) of the same substance?
**A.** 5.38 nM

**Q.** And the “Max Inhibition” value (LOU-NH91, NSCLC, screening #1)?
**A.** 63.0%

**Q.** And the “Max Inhibition” value (LU-65, NSCLC, screening #1)?
**A.** 32.4%

**Q.** What about the “Max Inhibition” value (LU-99, NSCLC, screening #1) of the same substance?
**A.** 6.3%

**Q.** What about the IC50 (LUDLU-1, NSCLC, screening #1) of the same substance?
**A.** 0.475 nM

**Q.** What about the “Max Inhibition” value (LUDLU-1, NSCLC, screening #1) of the same substance?
**A.** 91.1%

**Q.** And the “Max Inhibition” value (LXF-289, NSCLC, screening #1)?
**A.** 12.7%

**Q.** And the IC50 [1]?
**A.** 56.8 nM

**Q.** And the “Max Inhibition” value [1]?
**A.** 48.4%

**Q.** What about the IC50 [2] of the same substance?
**A.** 0.055 nM

**Q.** And the “Max Inhibition” value [2]?
**A.** 21.7%

**Q.** And the IC50 (MDA-MB-231, breast cancer (TNBC), screening #1)?
**A.** 0.11 nM

**Q.** What about the IC50 (MDA-MB-436, breast cancer (TNBC), screening #2) of the same substance?
**A.** 0.053 nM

**Q.** And the IC50 [3]?
**A.** 34.6 nM

**Q.** And the “Max Inhibition” value [3]?
**A.** 20.7%

**Q.** And the IC50 [4]?
**A.** 0.647 nM

**Q.** What about the “Max Inhibition” value [4] of the same substance?
**A.** 89.4%

**Q.** And the IC50 (MDST8, colorectal cancer, screening #1)?
**A.** 1.19 nM

**Q.** What about the “Max Inhibition” value (MEL-HO, melanoma, screening #1) of the same substance?
**A.** 16.7%

**Q.** What about the “Max Inhibition” value (MEL-JUSO, melanoma, screening #1) of the same substance?
**A.** 7.6%

**Q.** What about the IC50 (MES-SA, endometrial cancer, screening #1) of the same substance?
**A.** 0.107 nM

**Q.** And the IC50 (NCI-H460, NSCLC, screening #1)?
**A.** 0.853 nM

**Q.** What about the “Max Inhibition” value (NCI-H460, NSCLC, screening #1) of the same substance?
**A.** 86.1%

**Q.** And the IC50 (NCI-H820, NSCLC, screening #1)?
**A.** 0.023 nM

**Q.** And the “Max Inhibition” value (NCI-H820, NSCLC, screening #1)?
**A.** 100.0%

**Q.** And the IC50 (NMC-G1, neural tissue cancer, screening #2)?
**A.** 17.6 nM

**Q.** What about the “Max Inhibition” value (OV7, ovary cancer, screening #1) of the same substance?
**A.** 20.4%

**Q.** And the IC50 [5]?
**A.** 1.12 nM

**Q.** What about the “Max Inhibition” value [5] of the same substance?
**A.** 70.6%

**Q.** What about the “Max Inhibition” value (OVISE, ovary cancer, screening #1) of the same substance?
**A.** 4.0%

**Q.** What about the IC50 [6] of the same substance?
**A.** 0.23 nM

**Q.** And the “Max Inhibition” value [6]?
**A.** 80.0%

**Q.** What about the “Max Inhibition” value (OVTOKO, ovary cancer, screening #1) of the same substance?
**A.** 28.0%

**Q.** And the IC50 [7]?
**A.** 0.548 nM

**Q.** And the “Max Inhibition” value [7]?
**A.** 88.3%

**Q.** And the IC50 [8]?
**A.** 0.205 nM

**Q.** And the “Max Inhibition” value [8]?
**A.** 86.9%

**Q.** And the IC50 [9]?
**A.** 1.91 nM

**Q.** And the “Max Inhibition” value [9]?
**A.** 60.5%

**Q.** What about the IC50 [10] of the same substance?
**A.** 0.633 nM

**Q.** And the “Max Inhibition” value [10]?
**A.** 68.9%

**Q.** What about the IC50 (RL95-2, endometrial cancer, screening #1) of the same substance?
**A.** 0.155 nM

**Q.** And the IC50 [11]?
**A.** 0.244 nM

**Q.** What about the “Max Inhibition” value [11] of the same substance?
**A.** 91.5%

**Q.** And the IC50 [12]?
**A.** 0.325 nM

**Q.** And the “Max Inhibition” value [12]?
**A.** 50.9%

**Q.** What about the “Max Inhibition” value (RVH-421, melanoma, screening #1) of the same substance?
**A.** 22.5%

**Q.** And the IC50 [13]?
**A.** 0.082 nM

**Q.** What about the “Max Inhibition” value [13] of the same substance?
**A.** 25.8%

**Q.** What about the IC50 (SF126, neural tissue cancer, screening #2) of the same substance?
**A.** 0.013 nM

**Q.** What about the IC50 [14] of the same substance?
**A.** 0.023 nM

**Q.** And the “Max Inhibition” value [14]?
**A.** 87.5%

**Q.** What about the IC50 [15] of the same substance?
**A.** 0.518 nM

**Q.** What about the “Max Inhibition” value [15] of the same substance?
**A.** 38.1%

**Q.** And the “Max Inhibition” value (SK-MEL-30, melanoma, screening #1)?
**A.** 6.1%

**Q.** What about the IC50 (SNB-75, neural tissue cancer, screening #2) of the same substance?
**A.** 105 nM

**Q.** And the IC50 (SNG-II, endometrial cancer, screening #1)?
**A.** 1.03 nM

**Q.** What about the IC50 (SNU5, gastric cancer, screening #1) of the same substance?
**A.** 0.109 nM

**Q.** What about the IC50 [16] of the same substance?
**A.** 0.082 nM

**Q.** And the “Max Inhibition” value [16]?
**A.** 83.7%

**Q.** And the IC50 (SNU1033, colorectal cancer, screening #1)?
**A.** 10.1 nM

**Q.** And the IC50 (SNU-175, colorectal cancer, screening #1)?
**A.** 0.122 nM

**Q.** What about the IC50 [17] of the same substance?
**A.** 0.937 nM

**Q.** And the “Max Inhibition” value [17]?
**A.** 72.4%

**Q.** What about the IC50 (SNU-407, colorectal cancer, screening #1) of the same substance?
**A.** 0.098 nM

**Q.** And the IC50 (SNU-478, liver cancer, screening #1)?
**A.** 0.516 nM

**Q.** And the IC50 (SNU-601, gastric cancer, screening #1)?
**A.** 0.284 nM

**Q.** And the IC50 (SNU-620, gastric cancer, screening #1)?
**A.** 0.045 nM

**Q.** And the IC50 (SNU-668, gastric cancer, screening #1)?
**A.** 0.041 nM

**Q.** And the IC50 (SNU-719, gastric cancer, screening #1)?
**A.** 1.13 nM

**Q.** What about the IC50 (SNU-869, liver cancer, screening #1) of the same substance?
**A.** 2.95 nM

**Q.** And the “Max Inhibition” value (SNU-878, liver cancer, screening #1)?
**A.** 36.2%

**Q.** What about the IC50 (SNU-1197, colorectal cancer, screening #1) of the same substance?
**A.** 0.053 nM

**Q.** And the IC50 (SNU-C2B, colorectal cancer, screening #1)?
**A.** 0.713 nM

**Q.** And the IC50 (SUM159PT, breast cancer (TNBC), screening #2)?
**A.** 0.033 nM

**Q.** What about the IC50 (SW480, colorectal cancer, screening #1) of the same substance?
**A.** 2.04 nM

**Q.** And the IC50 [18]?
**A.** 0.016 nM

**Q.** And the “Max Inhibition” value [18]?
**A.** 97.9%

**Q.** And the IC50 (SW837, colorectal cancer, screening #1)?
**A.** 0.94 nM

**Q.** What about the “Max Inhibition” value (SW1573, NSCLC, screening #1) of the same substance?
**A.** 13.9%

**Q.** What about the IC50 (T3M-10, NSCLC, screening #1) of the same substance?
**A.** 0.495 nM

**Q.** And the “Max Inhibition” value (T3M-10, NSCLC, screening #1)?
**A.** 83.7%

**Q.** And the IC50 [19]?
**A.** 347 nM

**Q.** And the “Max Inhibition” value [19]?
**A.** 8.4%

**Q.** And the IC50 [20]?
**A.** 0.166 nM

**Q.** What about the “Max Inhibition” value [20] of the same substance?
**A.** 20.5%

**Q.** And the IC50 [21]?
**A.** 0.048 nM

**Q.** And the “Max Inhibition” value [21]?
**A.** 51.5%

**Q.** And the IC50 (TE-4, head and neck cancer, screening #1)?
**A.** 0.107 nM

**Q.** What about the IC50 (TE-6, head and neck cancer, screening #1) of the same substance?
**A.** 3.92 nM

**Q.** What about the IC50 (TE-9, head and neck cancer, screening #1) of the same substance?
**A.** 0.3 nM

**Q.** And the IC50 (TEN, endometrial cancer, screening #1)?
**A.** 1.21 nM

**Q.** And the IC50 (U-87 MG, neural tissue cancer, screening #2)?
**A.** 0.053 nM

**Q.** What about the IC50 [22] of the same substance?
**A.** 0.005 nM

**Q.** What about the “Max Inhibition” value [22] of the same substance?
**A.** 99.4%

**Q.** What about the “Max Inhibition” value (VMRC-LCD, NSCLC, screening #1) of the same substance?
**A.** 19.2%

**Q.** And the “Max Inhibition” value (WM-266-4, melanoma, screening #1)?
**A.** 42.5%

**Q.** What about the IC50 (YD-15, head and neck cancer, screening #1) of the same substance?
**A.** 0.114 nM

**Q.** And the IC50 (YH-13, neural tissue cancer, screening #2)?
**A.** 0.317 nM

**Q.** What about the “responder cell lines (maximum response threshold 70% inhibition)” value (monotherapy, 72 hour ATPlite assay) of the same substance?
**A.** found for all tested tumor indications, except small cell lung cancer (SCLC)
